Test results reported in US9145445B2 (priority 2003, dated 2015).
Where “and” joins values, the source holds several entries; their conditions need not be identical. Identical values can stand only once. Like-named read-outs stand apart in the source and are kept apart here. Where a SMILES comes first, the peptide text is derived from it.

How the values were obtained:
[1] = tested on: PT; test: estimation of peptides binding capacity (fraction of binding active peptide); parameters: species or system Bordetella pertussis; details: 20 pmol sepharose-immobilized peptide, 100 pmol PT (500 nM); 1:1 binding assumed
Procedure: For estimation of peptides binding capacity 20 pmol of sepharose-immobilized peptides were incubated with an excess of 100 pmol PT in a volume of 200 μl HEPES buffer (corresponds to 500 nM PT). After washing, the fraction of peptide-streptavidin sepharose bound PT was quantified by gel analysis. This allows directly to calculate the fraction of binding active peptide under the applied conditions (assuming the PT/peptide binding ratio is 1:1). Under the assumption that a concentration of 500 nM PT is high enough to reach Bmax for all peptides. The values presented therein are estimations for the expectable binding capacities of the peptides. An exact evaluation of binding capacity (Bmax) and dissociation constant (KD) of the most suitable binder may also be performed.

[2] = tested on: purified Pertussis Toxin; test: binding of purified PT to peptides immobilized on streptavidin sepharose; parameters: species or system Bordetella pertussis; details: ~200 pmol peptide on streptavidin sepharose, 100 pmol purified PT, gel, silver staining
[3] = tested on: PT immobilized on Streptavidin beads
[4] = tested on: PT; test: stability of PT/peptide complexes, BIAcore 2000; format: binding, Bordetella pertussis; details: for pH range stability of the complex (stable): PT/peptide complex, instable at pH 2.5 or 10.5
Procedure: The stability of PT/peptide complexes were investigated using the BIAcore 2000 instrument under different pH and salt conditions that were shown before not to interfere with the PT hexamer stability. 500-1000 RU of the synthetic peptides were immobilized on BIAcore streptavidin chips. To allow binding of PT to the immobilized peptides, 20 nM purified PT in HEPES buffer was injected for 1 minute. After equilibration with HBS/EP running buffer (0.01 M HEPES pH 7.4, 0.15 M NaCl 3 mM EDTA 0.005% polysorbate 20 (v/v)) the PT/peptide complexes were washed by injection of • (a) 100 mM carbonate buffer at pH 10.5 and 9.5 • (b) 10 mM acetate buffer at pH 5.5, 5.0, 4.5, and 4.0 • (c) 10 mM glycine buffer at pH 3.0 and 2.5 • (d) 0.5, 1.0, 1.5, 2.0 M NaCl in 10 mM acetate buffer, pH 6.0, • (e) 0.5, 1.0, 1.5, 2.0 M NaCl in 50 mM Tris/HCl buffer, pH 8.5, • (f) 0.5, 1.0, 1.5, 2.0 M KCl in 10 mM acetate buffer, pH 6.0, • (g) 0.5, 1.0, 1.5, 2.0 M KCl in 50 mM Tris/HCl buffer, pH 8.5, • (h) 0.5, 1.0, 1.5, 2.0 M NaCl in 10 mM acetate buffer, pH 6.0, • (i) 0.5, 1.0, 1.5, 2.0 M NaCl in 50 mM Tris/HCl buffer, pH 8.5.
After the end of each buffer injection, the chip was equilibrated with HBS/EP running buffer. The loss of PT hexamer on the chip under the applied buffer conditions (difference of measured RU signal before and after buffer injection) reflects the PT/peptide complex stability.

[5] = tested on: PT immobilized on a CM5 chip; format: binding, Bordetella pertussis
[6] = tested on: PT; details: phage display, Bogdan, et al.; cited from earlier work
[7] = tested on: PT; format: binding, Bordetella pertussis; details: input of 400 pmol peptide to 1 μl streptavidin sepharose
[8] = tested on: PT; test: reutilization of peptide sepharose for repeated PT binding and elution; parameters: species or system Bordetella pertussis; details: 4 cycles of PT binding, carbonate pH 10.5 elution, 10 mM HCl regeneration
Procedure: For binding of PT each peptide streptavidin sepharose was incubated with 400 μl sample B (adjusted to pH 7.0-7.5 by addition of HC1) for 1 hour at RT and washed 4 times with 50 mM Tris/HC1, pH 7.5 (each 200 μl). PT was eluted by 4 consecutive elutions with 100 mM Carbonate buffer at pH 10.5 (each 20 μl). Subsequently the column matrices were regenerated by three washes with 10 mM HC1 (l×20 μl, 2×100 μl) and afterwards neutralized by two washes with 200 μl 50 mM Tris/HC1, pH 7.5. This binding, elution and regeneration procedure was applied to the peptide sepharose for three additional times. […] (FIG. 25). • 5. Large-scale FPLC-Purification of PT

[9] = tested on: PT; format: binding, Bordetella pertussis
[10] = tested on: chip immobilized biotinylated PT; details: BIAcore streptavidin chip
Source text: The quality of the biotinylation reaction was controlled by analysis of the interaction of biotinylated PT with a BIAcore streptavidin chip using BIAcore instrument (BIAcore 2000).

Sequence of purified Pertussis Toxin (P04977 35-269 limits assumed): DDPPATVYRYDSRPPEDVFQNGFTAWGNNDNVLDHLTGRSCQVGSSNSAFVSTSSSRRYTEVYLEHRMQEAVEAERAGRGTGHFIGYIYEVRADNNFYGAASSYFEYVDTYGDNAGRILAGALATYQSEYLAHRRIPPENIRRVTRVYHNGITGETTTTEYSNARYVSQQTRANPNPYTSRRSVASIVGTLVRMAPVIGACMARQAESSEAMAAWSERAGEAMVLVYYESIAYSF
Sequence of purified Pertussis Toxin (P04978 28-226 limits assumed, further chain): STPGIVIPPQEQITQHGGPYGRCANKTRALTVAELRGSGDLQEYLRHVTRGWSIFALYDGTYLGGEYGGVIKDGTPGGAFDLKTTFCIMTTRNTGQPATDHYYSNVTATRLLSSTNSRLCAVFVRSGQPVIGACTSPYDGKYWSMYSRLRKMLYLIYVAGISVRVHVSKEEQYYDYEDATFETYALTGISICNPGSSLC
Sequence of purified Pertussis Toxin (P04979 29-227 limits assumed, further chain): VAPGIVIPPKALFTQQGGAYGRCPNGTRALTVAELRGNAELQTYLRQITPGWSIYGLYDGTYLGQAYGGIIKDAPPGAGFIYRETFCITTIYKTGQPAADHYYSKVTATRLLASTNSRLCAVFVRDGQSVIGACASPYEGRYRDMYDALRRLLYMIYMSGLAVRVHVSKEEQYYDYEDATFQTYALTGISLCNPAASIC
Sequence of purified Pertussis Toxin (P0A3R5 43-152 limits assumed, further chain): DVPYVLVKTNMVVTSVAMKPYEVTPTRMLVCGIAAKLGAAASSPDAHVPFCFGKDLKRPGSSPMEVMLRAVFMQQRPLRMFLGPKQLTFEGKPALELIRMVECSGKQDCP
Sequence of purified Pertussis Toxin (P04981 35-133 limits assumed, further chain): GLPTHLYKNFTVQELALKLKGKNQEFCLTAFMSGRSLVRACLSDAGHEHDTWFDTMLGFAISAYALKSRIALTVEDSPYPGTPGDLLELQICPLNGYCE
Sequence of PT (P04977 35-269 limits assumed): as the sequence (P04977 35-269 limits assumed) above
Sequence of PT (P04978 28-226 limits assumed, further chain): as the sequence (P04978 28-226 limits assumed, further chain) above
Sequence of PT (P04979 29-227 limits assumed, further chain): as the sequence (P04979 29-227 limits assumed, further chain) above
Sequence of PT (P0A3R5 43-152 limits assumed, further chain): as the sequence (P0A3R5 43-152 limits assumed, further chain) above
Sequence of PT (P04981 35-133 limits assumed, further chain): as the sequence (P04981 35-133 limits assumed, further chain) above
Sequence of PT immobilized on Streptavidin beads (P04977 35-269 limits assumed): as the sequence (P04977 35-269 limits assumed) above
Sequence of PT immobilized on Streptavidin beads (P04978 28-226 limits assumed, further chain): as the sequence (P04978 28-226 limits assumed, further chain) above
Sequence of PT immobilized on Streptavidin beads (P04979 29-227 limits assumed, further chain): as the sequence (P04979 29-227 limits assumed, further chain) above
Sequence of PT immobilized on Streptavidin beads (P0A3R5 43-152 limits assumed, further chain): as the sequence (P0A3R5 43-152 limits assumed, further chain) above
Sequence of PT immobilized on Streptavidin beads (P04981 35-133 limits assumed, further chain): as the sequence (P04981 35-133 limits assumed, further chain) above
Sequence of PT immobilized on a CM5 chip (P04977 35-269 limits assumed): as the sequence (P04977 35-269 limits assumed) above
Sequence of PT immobilized on a CM5 chip (P04978 28-226 limits assumed, further chain): as the sequence (P04978 28-226 limits assumed, further chain) above
Sequence of PT immobilized on a CM5 chip (P04979 29-227 limits assumed, further chain): as the sequence (P04979 29-227 limits assumed, further chain) above
Sequence of PT immobilized on a CM5 chip (P0A3R5 43-152 limits assumed, further chain): as the sequence (P0A3R5 43-152 limits assumed, further chain) above
Sequence of PT immobilized on a CM5 chip (P04981 35-133 limits assumed, further chain): as the sequence (P04981 35-133 limits assumed, further chain) above
Sequence of chip immobilized biotinylated PT (P04977 35-269 limits assumed): as the sequence (P04977 35-269 limits assumed) above
Sequence of chip immobilized biotinylated PT (P04978 28-226 limits assumed, further chain): as the sequence (P04978 28-226 limits assumed, further chain) above
Sequence of chip immobilized biotinylated PT (P04979 29-227 limits assumed, further chain): as the sequence (P04979 29-227 limits assumed, further chain) above
Sequence of chip immobilized biotinylated PT (P0A3R5 43-152 limits assumed, further chain): as the sequence (P0A3R5 43-152 limits assumed, further chain) above
Sequence of chip immobilized biotinylated PT (P04981 35-133 limits assumed, further chain): as the sequence (P04981 35-133 limits assumed, further chain) above

SGCVKKDELCELAVDECCEPLECFQMGHGFKRCG [gurmarin 10n]
Fraction of binding active peptide [1]: > 5%
binding to purified PT [2]: clear binding

MGRGSHHHHHHARSTMNTNRMDIQRLMTNHVKRDSSPGSIDANAPKASAI [PP26 variant 6]
target binding to PT in the presence of AP process fluids [3]: not reduced

MGRGSHHHHHHARSNVIPLNEVWYDTGWDRPHRSRLSIDDDANAPKASAI [PP26 variant 9]
target binding to PT in the presence of AP process fluids [3]: not reduced

RSWRDTRKLHMRHYFPLAIDSYWDHTLRDA [pp26 15n]
pH range stability of the complex (stable) [4]: 3-9 pH
KCl stability of the complex (stable) ([4]; pH 6): 2 M
MgCl2 stability of the complex (stable) ([4]; pH 6): to 2M
NaCl stability of the complex (stable) ([4]; pH 6): 2 M
KCl stability of the complex (stable) ([4]; pH 8.5): 2 M
MgCl2 stability of the complex: complete elution ([4]; pH 8.5): not
NaCl stability of the complex (stable) ([4]; pH 8.5): 2 M
MgCl2 stability of the complex: Elution / destabilized ([4]; pH 8.5 (50 mM Tris/HCl)): Elution ≧1.5, M
Fraction of binding active peptide [1]: >12.5%
binding to purified PT [2]: clear binding

RSSHCRHRNCHTITRGNMRIETPNNIRKDAK [pp26 5c]
binding to purified PT [2]: clear binding

SGCVKKDELCARWDLVCCEPLECIYTSELYATCG [gurmarin 9n]
NaCl in buffer that interferes with PT/peptide complex stability [4]: 2.5 M
pH range stability of the complex (stable) [4]: 3-9 pH
KCl stability of the complex (stable) ([4]; pH 8.5): strong sensitive to salt
NaCl stability of the complex (stable) ([4]; pH 8.5): strong sensitive to salt
Fraction of binding active peptide [1]: >12.5%
binding to purified PT [2]: clear binding

MGRGSHHHHHHARSSHCRHRNCHTITRGNMRIETPNNIRKDANAPKASAI [PP26 variant 5]
target binding to PT in the presence of AP process fluids [3]: not reduced

MHHHHHHSGSSSGSGCVKKDELCELAVDECCEPLECFQMGHGFKRCGSGSSGSS [gurmarin variant 10]
target binding to PT in the presence of AP process fluids [3]: not influenced

RSSHCRHRNCHTITRGNMRIETPNNIRKDA [pp26 5n]
Fraction of binding active peptide [1]: > 5%
binding to purified PT [2]: clear binding

CC[C@H](C)[C@H](NC(=O)[C@H](CO)NC(=O)[C@H](CC(C)C)NC(=O)[C@H](CCCNC(=N)N)NC(=O)[C@H](CO)NC(=O)[C@H](CCCNC(=N)N)NC(=O)[C@H](Cc1c[nH]cn1)NC(=O)[C@@H]1CCCN1C(=O)[C@H](CCCNC(=N)N)NC(=O)[C@H](CC(=O)O)NC(=O)[C@H](Cc1c[nH]c2ccccc12)NC(=O)CNC(=O)[C@@H](NC(=O)[C@H](CC(=O)O)NC(=O)[C@H](Cc1ccc(O)cc1)NC(=O)[C@H](Cc1c[nH]c2ccccc12)NC(=O)[C@@H](NC(=O)[C@H](CCC(=O)O)NC(=O)[C@H](CC(N)=O)NC(=O)[C@H](CC(C)C)NC(=O)[C@@H]1CCCN1C(=O)[C@@H](NC(=O)[C@@H](NC(=O)[C@H](CC(N)=O)NC(=O)[C@H](CO)NC(=O)[C@H](CCCNC(=N)N)NC(=O)COCCOCCNC(=O)CCCC[C@@H]1SC[C@@H]2NC(=O)N[C@@H]21)C(C)C)[C@@H](C)CC)C(C)C)[C@@H](C)O)C(=O)N[C@@H](CC(=O)O)C(=O)N[C@@H](CC(=O)O)C(=O)N[C@@H](CC(=O)O)C(=O)N[C@@H](C)C(=O)O [pp26 9n] (HELM PEPTIDE1{[O=C1N[C@H]2[C@H](CS[C@H]2CCCCC(=O)[*:2])N1].[O=C(COCCOCCN[*:1])[*:2]].R.S.N.V.I.P.L.N.E.V.W.Y.D.T.G.W.D.R.P.H.R.S.R.L.S.I.D.D.D.A}$$$$V2.0)
Association rate constant kon [5]: 130000 M⁻¹ s⁻¹
Dissociation rate constant koff [5]: 10^−3 s^−1

MHHHHHHSGSSSGSGCVKKDELCELAVDECCEPLECTKGDLGFRKCGSGSSGSS [gurmarin variant 19]
target binding to PT in the presence of AP process fluids [3]: not influenced

NGSFSGC [3G8]
PT-binding capacity [6]: PT-binding capacity

MHHHHHHSGSSSGSGCVKKDELCARWDLVCCEPLECIYTSELYATCGSGSSGSS [gurmarin variant 9]
target binding to PT in the presence of AP process fluids [3]: not influenced

SGCVKKDELCSQSVPMCCEPLECKWFNENYGICGS [gurmarin 15n]
Amount of elutable peptide (effectively bound fraction of peptide) [7]: 50 pmol
pH range stability of the complex (stable) [4]: 3-9 pH
KCl stability of the complex (stable) ([4]; pH 6): sensitive to salt
MgCl2 stability of the complex: Elution ([4]; pH 6): Elution ≧1M,
MgCl2 stability of the complex: complete elution ([4]; pH 6): elution ≧2M
NaCl stability of the complex (stable) ([4]; pH 6): sensitive to salt
KCl stability of the complex (stable) ([4]; pH 8.5): sensitive to salt
MgCl2 stability of the complex: complete elution ([4]; pH 8.5): elution ≧2M
NaCl stability of the complex (stable) ([4]; pH 8.5): sensitive to salt
binding to purified PT [2]: clear binding
reusability of peptide loaded sepharose [8]: may be re-utilized

Pertussis toxin [PT]
pH range over which Pertussis toxin hexamer is stable (BIAcore, buffers pH 2-10.5): 2.5-10.5 pH
PT hexamer stability (%) (pH 2): 93%
PT hexamer stability (%) (pH 2.5): 98%
PT hexamer stability (%) (pH 3): 100%
PT hexamer stability (%) (pH 4): 100%
PT hexamer stability (%) (pH 4.5): 100%
PT hexamer stability (%) (pH 5): 100%
PT hexamer stability (%) (pH 5.5): 100%
PT hexamer stability (%) (pH 8.5): 100%
PT hexamer stability (%) (pH 9.6): 98%
PT hexamer stability (%) (pH 10.5): 95%

SGCVKKDELCELAIDECCEPLECTKGDLGFRKCG [gurmarin 19n]
binding to purified PT [2]: clear binding

NGSFSGF [3G5]
PT-binding capacity [6]: PT-binding capacity

asialofetuin
Amount of PT bound [9]: ~8 pmol and ~16 pmol
binding signal to immobilized PT [10]: ~400 RU
unspecific binding to the control cell [10]: ~100 RU

DGSFSGF [3G2]
PT-binding capacity [6]: PT-binding capacity
